In ChEMBL document CHEMBL1649419, “Design and synthesis of pyrimidinone and pyrimidinedione inhibitors of dipeptidyl peptidase IV” (J Med Chem, 2011):

Legend:
[1] = Half life in rat liver microsomes by LC/MS analysis; assay type: ADME, Microsome
[2] = Half life in human liver microsomes by LC/MS analysis; assay type: ADME, Microsome
[3] = Half life in monkey at 1.6 mg/kg, iv; assay type: ADME, organism-based, Macaca mulatta; design: dose 1.6 mg/kg, route intravenous; conditions: rhesus monkey, in vivo
[4] = Half life in monkey at 2.1 mg/kg, po; assay type: ADME, organism-based, Macaca mulatta; design: dose 2.1 mg/kg, route oral; conditions: rhesus monkey, in vivo
[5] = AUC in monkey at 2.1 mg/kg, po; assay type: ADME, organism-based, Macaca mulatta; design: dose 2.1 mg/kg, route oral; conditions: rhesus monkey, plasma
[6] = Volume of distribution at steady state in monkey at 1.6 mg/kg, iv and 2.1 mg/kg, po; assay type: ADME, organism-based, Macaca mulatta; conditions: rhesus monkey, in vivo, read-out: Vdss
[7] = Oral bioavailability in monkey at 2.1 mg/kg; assay type: ADME, organism-based, Macaca mulatta; conditions: rhesus monkey, in vivo
[8] = Half life in rat at 1.4 mg/kg, iv; assay type: ADME, organism-based; design: dose 1.4 mg/kg, route intravenous; conditions: in vivo
[9] = Half life in dog at 0.52 mg/kg, iv; assay type: ADME, organism-based, Canis lupus familiaris; design: dose 0.52 mg/kg, route intravenous; conditions: in vivo
[10] = Half life in rat at 14 mg/kg, po; assay type: ADME, organism-based; design: dose 14 mg/kg, route oral; conditions: in vivo
[11] = Half life in dog at 1.8 mg/kg, po; assay type: ADME, organism-based, Canis lupus familiaris; design: dose 1.8 mg/kg, route oral; conditions: in vivo
[12] = AUC in rat at 14 mg/kg, po; assay type: ADME, organism-based; design: dose 14 mg/kg, route oral; conditions: plasma
[13] = AUC in dog at 1.8 mg/kg, po; assay type: ADME, organism-based, Canis lupus familiaris; design: dose 1.8 mg/kg, route oral; conditions: plasma
[14] = Volume of distribution at steady state in rat at 1.4 mg/kg, iv and 14 mg/kg, po; assay type: ADME, organism-based; conditions: in vivo, read-out: Vdss
[15] = Volume of distribution at steady state in dog at 0.52 mg/kg, iv and 1.8 mg/kg, po; assay type: ADME, organism-based, Canis lupus familiaris; conditions: in vivo, read-out: Vdss
[16] = Oral bioavailability in dog at 1.8 mg/kg; assay type: ADME, organism-based, Canis lupus familiaris; conditions: in vivo
[17] = Oral bioavailability in rat at 14 mg/kg; assay type: ADME, organism-based; conditions: in vivo

SMILES | half-life [1] [h] | half-life [2] [h] | other results
N#Cc1ccccc1Cn1c(N2CCC[C@@H](N)C2)ncc(-c2ccccc2)c1=O | 0.0167 | 1.17 | 
Cn1c(=O)cc(N2CCC[C@@](C)(N)C2)n(Cc2cc(F)ccc2C#N)c1=O | 0.583 | > 3.33 | 
N#Cc1ccccc1Cn1c(N2CCC[C@@H](N)C2)ncc(F)c1=O.O=C(O)C(O)C(O)C(=O)O [TARTARATE] |  |  | half-life [3]: 4 h; half-life [4]: 5.7 h; AUC [5]: 3100 ng·h/mL; Vd [6]: 3.2 L/kg; bioavailability [7]: 110%
N[C@@H]1CCCN(c2cc(=O)[nH]c(=O)n2Cc2ccccc2Br)C1 | > 1.97 | > 3.33 | 
Cn1c(=O)cc(N2CCC[C@@H](N)C2)n(Cc2cc(F)ccc2Cl)c1=O | 0.883 | > 3.33 | 
N#Cc1ccc(F)cc1Cn1c(N2CCC[C@@H](N)C2)ncc(Cl)c1=O | 2.03 | > 3.33 | 
CCn1c(=O)cc(N2CCC[C@@H](N)C2)n(Cc2ccccc2C#N)c1=O | 0.533 | > 3.33 | 
N#Cc1ccccc1Cn1c(N2CCC[C@@H](N)C2)nccc1=O.O=C(O)C(F)(F)F |  |  | half-life [8]: 0.74 h; half-life [9]: 2.4 h; half-life [10]: 1 h; half-life [11]: 2.8 h; AUC [12]: 1200 ng·h/mL; AUC [13]: 1400 ng·h/mL; Vd [14]: 4.8 L/kg; Vd [15]: 3 L/kg; bioavailability [16]: 78%; bioavailability [17]: 54%
Cn1c(=O)cc(N2CCC[C@@H](N)C2)n(Cc2cc(F)ccc2Br)c1=O | 0.267 | 1.5 | 
N#Cc1ccccc1Cn1c(N2CCC[C@@H](N)C2)ncc(/C=C/c2ccc(F)cc2)c1=O | > 3.33 | 3.1 | 
Cn1c(=O)cc(N2CCC[C@@H](N)C2)n(Cc2cc(Cl)ccc2Cl)c1=O | 0.167 | 2.75 | 
N#Cc1ccccc1Cn1c(N2CCC[C@@H](N)C2)ncc(/C=C/c2cccnc2)c1=O | 0.45 | > 3.33 | 
Cn1c(=O)cc(N2CCC[C@@H](N)C2)n(Cc2cc(F)ccc2C#N)c1=O [TRELAGLIPTIN] | > 3.33 | > 3.33 | 

Now from value to compound, other results behind:

half-life [1] [h] | half-life [2] [h] | SMILES | other results
3.32 | > 3.33 | N#Cc1ccccc1Cn1c(N2CCC[C@@H](N)C2)ncc(Cl)c1=O | 
0.0667 | 0.933 | N#Cc1ccccc1Cn1c(N2CCC[C@@H](N)C2)ncc(-c2ccoc2)c1=O | 
> 3.33 | > 3.33 | N#Cc1ccccc1Cn1c(N2CCC[C@@H](N)C2)ncc(F)c1=O | 
0.2 | 1.98 | N#Cc1ccccc1Cn1c(N2CCC[C@@H](N)C2)nc(-c2ccccc2)cc1=O | 
2.18 | > 3.33 | N#Cc1ccccc1Cn1c(N2CCC[C@@H](N)C2)nccc1=O | 
0.167 | > 3.33 | Cc1nc(N2CCC[C@@H](N)C2)n(Cc2ccccc2C#N)c(=O)c1C | 
0.333 | > 3.33 | COc1cnc(N2CCC[C@@H](N)C2)n(Cc2ccccc2C#N)c1=O | 
> 3.33 | 2.15 | N#Cc1ccccc1Cn1c(N2CCC[C@@H](N)C2)cc(=O)[nH]c1=O | 
> 3.33 | > 3.33 | C#Cc1cnc(N2CCC[C@@H](N)C2)n(Cc2ccccc2C#N)c1=O | 
0.1 | 2.73 | C=Cc1cnc(N2CCC[C@@H](N)C2)n(Cc2ccccc2C#N)c1=O | 
